Biological target: T1, hPIRT (human PIRT, phosphoinositide interacting regulator of TRPs) (Homo sapiens, UniProt P0C851)
T1 construct: full-length, recombinant from E. coli, reconstituted in DPC micelles; two TM helices, C-terminal amphipathic helix Asp125-Arg137; maleimide dye labelled for MST
Assay: microscale thermophoresis
Type: binding
Settings: DPC micelles (0.1% DPC), 50 mM HEPES pH 7.5, 25 °C; fluorophore-labelled hPIRT 400 nM; no TRPM8-S1S4; diC8 chain stated for the NMR titration, MST lipid called PIP2 only

T1 sequence (P0C851 whole entry): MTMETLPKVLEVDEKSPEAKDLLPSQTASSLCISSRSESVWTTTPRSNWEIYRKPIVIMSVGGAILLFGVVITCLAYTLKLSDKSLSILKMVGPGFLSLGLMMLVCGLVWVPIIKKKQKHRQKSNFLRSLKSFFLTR

`CCCCCCCC(=O)OC[C@H](COP(=O)(O)O[C@@H]1[C@H](O)[C@H](O)[C@@H](OP(=O)(O)O)[C@H](OP(=O)(O)O)[C@H]1O)OC(=O)CCCCCCC` [PIP2, 1,2-dioctanoyl-sn-glycero-3-phospho-(1′-myo-inositol-4′,5′-bisphosphate)] showed a Kd of 0.18 ± 0.06 mole%.
